We go through one compound from article PMC11582173, “Synthesis, cytotoxicity, anti-inflammatory, anti-metastatic and anti-oxidant activities of novel chalcones incorporating 2-phenoxy-N-arylacetamide and thiophene moieties: induction of apoptosis in MCF7 and HEP2 cells” (Naunyn-Schmiedeberg's Archives of Pharmacology, 2024).

In the experiment the test system is Survivin gene. The experiment is described as follows: Real-time PCR, Survivin gene expression. Type of experiment: cell-based, human. The conditions noted are these: relative to untreated control (1). Here is the method: The expression level of the following six genes (Ki-67, Survivin, Interleukin-1 beta (IL-1B), Interleukin-6 (IL-6), Cyclooxygenase-2 (COX-2) and protein kinase B (AKT1)) was determined in MCF7 and HEP2 treated with the IC50 of compound 5c. The untreated cells were used as a negative control for comparison purposes. […] Ki-67 is a popular proliferation marker for human tumor cells. […] Survivin is an inhibitor of apoptotic protein (IAP) family member, which is essential for cell division. The lowering of the expression of survivin inhibited tumor development, triggered apoptosis, and made tumor cells more susceptible to radiation and chemotherapy (Albadari and Li [2023]). […] IL-1B is a pleiotropic mediator of inflammation, which is produced in response to a variety of stressors (Aarreberg et al. [2019]). […] IL-6 is a pro-inflammatory cytokine that plays a significant role in the proliferation and differentiation of human cells. It promotes the production of numerous proteins involved in acute inflammation (Uciechowski and Dempke [2020]). […]
The expression level of the following six genes (Ki-67, survivin, AKT1, IL-6, COX2, and IL-1B) was examined using real-time polymerase chain reaction (qPCR) (Mohamed et al. [2023a]). […] The cycle threshold (Ct) was determined automatically. […]

SMILES strings stand for the structures.

Take `COc1ccc(NC(=O)COc2ccc(C=CC(=O)c3cccs3)cc2)cc1` [Compound 5c, N-(4-Methoxyphenyl)-2-(4-(3-oxo-3-(thiophen-2-yl)prop-1-en-1-yl)phenoxy)acetamide]: the Survivin expression folding by setting is: (HEP2 cells treated with IC50 of 5c) 0.489±0.07 fold; (MCF7 cells treated with IC50 of 5c) 0.632±0.0618 fold.
